{"source": "patent US20210145830A1", "about": "“MATERIALS AND METHODS FOR TREATING CANCER” (Mayo Foundation for Medical Education and Research, priority 2018, published 2021)", "format_in_all_cases": "cell-based", "key": {"[1]": {"system": "p-LCK, p38MAPK, GATA-3, T-bet in CART19 cells", "experiment": "Western blot of signaling molecules in stimulated CART19 cells", "protocol": "FIG. 24A-B. A. Western blot analysis of p-LCK inhibition by TP0903 in CART19 cells. CART19 cells were incubated with lethally irradiated JeKo-1 in the presence of TP0903 at a 1 to 3 ratio for 24 hours. After the incubation, CART19 cells were purified with anti-CD19 micro beads. […] B. Comparison of gene expression between TP0903 treated CART19 cells and non-treated CART19 cells subpopulations using RNA-seq. CART19 cells from three biological replicates were thawed and stimulated with irradiated JeKo-1 (120 Gy) for 5 days. Each sample was treated with either 30 nM TP0903 (treated condition) or DMSO (untreated condition). Representative flow cytometric analysis of CART19 cells before RNA isolation (right). RNA-seq was performed on an Illumina […] by the Genomic Sequencing Core at Mayo Clinic."}, "[2]": {"system": "p-LCK and GATA-3 in naïve T cells", "experiment": "Western blot of p-LCK and GATA-3 in naïve T cells", "protocol": "FIG. 21A-E. TP0903 modulates naïve T cells function upon stimulation of PMA/Ionomycin in vitro. A. Naïve T cell proliferation assay in the presence of TP0903. Naïve T cells were stimulated with 5 ng/ml of PMA and 0.1 μg/ml of Ionomycin in the absence or in the increasing dose of TP0903 (10-65 nM) for 3 days. […] B. At the end of the expansion on day 3, T cells were stained with inhibitory receptors. […] C. Naïve T cell degranulation assay and cytokine production in the presence of TP0903. Naïve T cells were stimulated with 50 ng/ml of PMA and 1 μg/ml of Ionomycin for 4 hours in the presence of increasing doses of TP0903 (10-65 nM). […] D. Western blot analysis of p-LCK and GATA-3 inhibition by TP0903 in naïve T cells. Naïve T cells were stimulated with 5 ng/ml of PMA and 0.1 ug/ml of Ionomycin in the absence (DMSO) or in the increasing dose of TP0903 (10-65 nM) for 24 hours. […] was used as loading control. E. TP0903 specifically reduces regulatory T cells (Treg). Effector T cells (Teff) were isolated by negative selection using RoboSep™ Human T Cell Isolation Kit (Stemcell Technologies). Tregs were isolated by negative selection using the human CD4^+CD127^lowCD25^+ Treg isolation kit (Stemcell Technologies). Teff and Treg were stimulated with anti-CD3/CD28 beads and 400 U/ml of IL-2. At day 5, total T cells were evaluated via CountBright quantification."}, "[3]": {"system": "luciferase-positive Jeko", "experiment": "CART19 cytotoxicity in the presence of TP0903", "protocol": "FIG. 1 contains a graph showing CART19 cytotoxicity in the presence TP0903. CART19 or untransduced T cells (UTDs) were co-cultured at different effector-to-target ratios (E:T) with luciferase-positive Jeko with increasing doses of TP0903 (TP). At 24 hours, cell killing was assessed by luminescence.\nFIGS. 16A-B. A head-to-head comparison of two different combination therapy. UTDs (A) or CART19 (B) were co-cultured at different effector-to-target ratios (E:T) with luciferase-positive CD19^+ cell line in the presence of DMSO, 30 nM TP0903, or 100 nM ibrutinib. Cell killing was assessed by luminescence at 24 hours.\nFIG. 22A-C. In vitro experiment for the combination of CART19 and TP0903. A. CART19 were cocultured at different effector-to-target ratio (E:T) with luciferase-positive JeKo-1. At 48 hours, cell killing was assessed by luminescence. […] The means and SEM are shown (**, p<0.005, *, p<0.05, one-way ANOVA analysis). n.s., not statistically significant. B. CART19 degranulation assay and cytokine production in the presence of TP0903. CART19 were cocultured with JeKo-1 for 4 hours in the presence of TP0903 doses of TP0903 (10-65 nM). […] C. Th2/Th1 T cell subtype analysis during CART19 expansion in the presence pf TP0903. CART19 cells were stimulated with lethally irradiated (120 Gy) JeKo-1 cell lines in the presence of increasing doses of TP0903 (10-30 nM). At the day 3, Th1 and Th2 cells were defined using CD4, CCR6, CCR4 and CXCR3 expression. […] The means and SEM are shown (*, p<0.05, one-way ANOVA analysis). n.s., not statistically significant.\nJEKO-Luc cells or primary B cells were used for cytotoxicity assay. In brief, targets were incubated at the indicated ratios with effector T cells for 4 or 16 hours. Killing was calculated either by bioluminescence imaging on a Xenogen IVIS-200 Spectrum camera (PerkinElmer, Hopkinton, Mass., USA) or by flow cytometry. For the latter, cells were harvested; Countbright beads and life/dead (Invitrogen) were added prior to analysis. Residual live target cells were CD19+L/D−.\nCART19 or UTDs were cocultured at different effector-to-target ratio (E:T) with luciferase-positive Jeko or with primary CLL cells, with increasing dose of TP0903 as indicated on the X axis. At 24 hours, cell killing was assessed by luminescence or by flow cytometry."}, "[4]": {"settings": "CART19 + irradiated JeKo-1, 24 hours, highest dose"}, "[5]": {"settings": "CART19 + irradiated JeKo-1, 24 hours, highest dose (65 nM)"}, "[6]": {"settings": "PMA/Ionomycin, 24 hours, highest dose (65 nM)"}}, "data": [{"smiles": "CN1CCN(Cc2ccc(Nc3ncc(Cl)c(Nc4ccccc4S(=O)(=O)N(C)C)n3)cc2)CC1", "note": "[TP0903]", "values": [{"measurement": "GATA-3", "setting": "[1]; [4]", "value": "inhibited"}, {"measurement": "T-bet", "setting": "[1]; [4]", "value": "inhibited"}, {"measurement": "phosphorylation of LCK", "setting": "[1]; [5]", "value": "modest inhibition"}, {"measurement": "phosphorylation of p38MAPK", "setting": "[1]; [5]", "value": "modest inhibition"}, {"measurement": "phosphorylation of LCK", "setting": "[1]; T cell lysates, CART19, Example 2 text", "value": "remarkably reduced"}, {"measurement": "GATA-3", "setting": "[2]; [6]", "value": "modest inhibition"}, {"measurement": "phosphorylation of LCK", "setting": "[2]; [6]", "value": "modest inhibition"}, {"measurement": "LCK", "setting": "[2]; T cell lysates, low dose TP0903", "value": "inhibition"}, {"measurement": "cell killing, head-to-head comparison of combinations", "setting": "[3]; 30 nM TP0903 + CART19 vs 100 nM ibrutinib + CART19, luciferase-positive CD19+ cell line, 24 hours", "value": "more synergistic killing"}, {"measurement": "type of combination effect on cell killing", "setting": "[3]; CART19 + TP0903, from calculations", "value": "synergistic rather than an additive effect"}, {"measurement": "cell killing assessed by luminescence", "setting": "[3]; CART19 + increasing doses of TP0903, different E:T ratios, luciferase-positive Jeko or primary CLL cells, 24 hours", "value": "robust killing at all E:T ratios"}, {"measurement": "cytotoxic effect versus TP0903 dose", "setting": "[3]; CART19 with luciferase-positive JeKo-1, 48 hours, at a specific E:T ratio", "value": "increased cytotoxic effect was significantly correlated to increased TP0903 dose"}, {"measurement": "antitumor activity against JeKo in vitro", "setting": "[3]; combination of CART19 cells and TP0903, low E:T ratios", "value": "synergistic antitumor activity"}]}]}
